Reference: patent US9597407B2, “Targeted antimicrobial moieties” (C3 Jian, Inc., priority 2009, dated 2017)
“Also recorded” adds a separate entry of the source.

Columns and labels:
[1] = test system: bacteria; test: Binding of targeting peptides to microorganisms (Table 3); conditions: peptide binding in aqueous buffers that varied depending on peptide solubility; preferably 1x PBS
[2] = test system: microorganisms; test: Morphology, biofilm and growth disruption by peptides (Table 5); format: cell-based; parameters: key: A: Peptide aggregates; B: Less hyphal formation; Clumps; Diffuse clumps and small polyps; F: Diffuse growth; H: Thin; I: Growth inhibition; Microcolony formation; Rippled; Small polyps; Thick; W: Halo formation on top, microlonies on bottom
Excerpt: In certain embodiments peptides that induce alterations in phenotype or other biological activities can also be used as antimicrobial effector moieties.

Substance | Target(s) (microorganism bound by the targeting peptide) [1] | Organism, effect (morphology, biofilm and growth disruption) ([2]; S. pneumoniae) | Organism, effect (morphology, biofilm and growth disruption) ([2]; S. mutans) | Organism, effect (morphology, biofilm and growth disruption) ([2]; F. nucleatum) | further results
PF-696 (chain 1 IRSGISAAYARPLR; chain 2 IRSGISAAYARPLR; Peptide with targeting and/or antimicrobial activity) | Mycobacteria spp | S. pneumoniae (H) |  |  | 
PF-697 (chain 1 RADARAK; chain 2 RADARAK; Peptide with targeting and/or antimicrobial activity) | Mycobacteria spp | S. pneumoniae (H) |  |  | Organism, effect (morphology, biofilm and growth disruption) ([2]; C. albicans): C. albicans (H)
PF-698 (chain 1 SSGRAGVKCRRPTGR; chain 2 SSGRAGVKCRRPTGR; Peptide with targeting and/or antimicrobial activity) | Mycobacteria spp | S. pneumoniae (A) |  |  | Organism, effect (morphology, biofilm and growth disruption) ([2]; C. albicans): C. albicans (H); Organism, effect (morphology, biofilm and growth disruption) ([2]; E. faecalis): E. faecalis (A)
PF-699 (chain 1 GRAGVKCRRPTGR; chain 2 GRAGVKCRRPTGR; Peptide with targeting and/or antimicrobial activity) | Mycobacteria spp | S. pneumoniae (A) |  |  | 
PF-700 (chain 1 LNWPFTGR; chain 2 LNWPFTGR; Peptide with targeting and/or antimicrobial activity) | Mycobacteria spp | S. pneumoniae (C) |  |  | 
PF-702 (chain 1 LSGRLAGRR; chain 2 LSGRLAGRR; Peptide with targeting and/or antimicrobial activity) | Mycobacteria spp | S. pneumoniae (H) |  |  | 
PF-704 (chain 1 APAARAAL; chain 2 APAARAAL; Peptide with targeting and/or antimicrobial activity) | Mycobacteria spp | S. pneumoniae (C) |  |  | 
PF-776 (VSILLYLSATIILPNVLRLLVARAIIVRV; Peptide with targeting and/or antimicrobial activity) | S. epidermidis and M. luteus and P. mirabilis and C. albicans and MRSA and S. pneumoniae and E. faecalis | S. pneumoniae (C) | S. mutans (D) |  | Organism, effect (morphology, biofilm and growth disruption) ([2]; E. coli): E. coli (C); Organism, effect (morphology, biofilm and growth disruption) ([2]; M. luteus): M. luteus (C); Organism, effect (morphology, biofilm and growth disruption) ([2]; MRSA): MRSA (D); Organism, effect (morphology, biofilm and growth disruption) ([2]; S. epidermidis): S. epidermidis (D)
PF-C052 (SRFRNGV; Peptide with targeting and/or antimicrobial activity) | A. naeslundii; also recorded: F. nucleatum; also recorded: S. mutans |  |  |  | Organism, effect (morphology, biofilm and growth disruption) ([2]; P. gingivalis): P. gingivalis (H)
PF-C055 (YNLSIYIYFLHTITIAGLITLPFII; Peptide with targeting and/or antimicrobial activity) | A. naeslundii; also recorded: F. nucleatum; also recorded: P. gingivalis; also recorded: S. mutans |  | S. mutans (I) | F. nucleatum (T) | 
PF-C057 (YFWWYWVQDCIPYKNNEVWLELSNNMK; Peptide with targeting and/or antimicrobial activity) | A. naeslundii; also recorded: F. nucleatum; also recorded: P. gingivalis; also recorded: S. mutans |  | S. mutans (I) |  | 
PF-C062 (PLARATEVVATLFIICSLLLYLTR; Peptide with targeting and/or antimicrobial activity) | A. naeslundii; also recorded: F. nucleatum; also recorded: P. gingivalis; also recorded: S. mutans; also recorded: T. denticola |  | S. mutans (I) | F. nucleatum (T) | 
PF-C064 (DEEALEMGANLYAQFAIDFLNSKK; Peptide with targeting and/or antimicrobial activity) | A. naeslundii; also recorded: F. nucleatum; also recorded: P. gingivalis; also recorded: S. mutans; also recorded: T. denticola |  |  | F. nucleatum (T) | 
PF-C069 (NALMLREMQLAKNIKVEVTDVLSNKKYC; Peptide with targeting and/or antimicrobial activity) | A. naeslundii; also recorded: F. nucleatum; also recorded: P. gingivalis; also recorded: S. mutans; also recorded: T. denticola |  |  | F. nucleatum (T) | 
PF-C071 (QVIVKIL; Peptide with targeting and/or antimicrobial activity) | A. naeslundii; also recorded: F. nucleatum; also recorded: S. mutans |  |  | F. nucleatum (T) | 
PF-C075 (KALVISVFAIVFSIIFVKFFYWRDKK; Peptide with targeting and/or antimicrobial activity) | A. naeslundii; also recorded: F. nucleatum; also recorded: P. gingivalis; also recorded: S. mutans; also recorded: T. denticola |  | S. mutans (F) | F. nucleatum (T) | Organism, effect (morphology, biofilm and growth disruption) ([2]; P. gingivalis): P. gingivalis (R)
PF-C084 (FFSVIFLFGLNYLICNSPLFNILR; Peptide with targeting and/or antimicrobial activity) | A. naeslundii; also recorded: F. nucleatum; also recorded: P. gingivalis; also recorded: S. mutans |  | S. mutans (F) | F. nucleatum (T) | Organism, effect (morphology, biofilm and growth disruption) ([2]; P. gingivalis): P. gingivalis (R)
PF-C088 (DIANNILNSVSERLIIA; Peptide with targeting and/or antimicrobial activity) | A. naeslundii; also recorded: F. nucleatum; also recorded: P. gingivalis; also recorded: S. mutans; also recorded: T. denticola |  | S. mutans (I) | F. nucleatum (H) | Organism, effect (morphology, biofilm and growth disruption) ([2]; P. gingivalis): P. gingivalis (R)
PF-C091 (ASNTPRFVRLTLFNFYSKIWNVTHLFLFNNL; Peptide with targeting and/or antimicrobial activity) | A. naeslundii; also recorded: F. nucleatum; also recorded: P. gingivalis; also recorded: S. mutans; also recorded: T. denticola |  |  | F. nucleatum (T) | 
PF-C120 (ASLSTMTFKVMELKELIILLCGLTMLMIQTEFV; Peptide with targeting and/or antimicrobial activity) | A. naeslundii; also recorded: F. nucleatum; also recorded: P. gingivalis; also recorded: S. mutans; also recorded: T. denticola |  |  | F. nucleatum (T) | 
PF-C131 (QWIVAKREIRMHIYCHISVIHVIIFFG; Peptide with targeting and/or antimicrobial activity) | A. naeslundii; also recorded: F. nucleatum; also recorded: P. gingivalis; also recorded: S. mutans |  | S. mutans (F) | F. nucleatum (T) | 
PF-C136 (LILSYQASVYPLFAYLCQQKDY; Peptide with targeting and/or antimicrobial activity) | A. naeslundii; also recorded: F. nucleatum; also recorded: P. gingivalis; also recorded: S. mutans; also recorded: T. denticola |  |  | F. nucleatum (C) | Organism, effect (morphology, biofilm and growth disruption) ([2]; P. gingivalis): P. gingivalis (R)
PF-C137 (QRMYWFKRGFETGDFSAGDTFAELK; Peptide with targeting and/or antimicrobial activity) | A. naeslundii; also recorded: F. nucleatum; also recorded: P. gingivalis; also recorded: S. mutans |  |  | F. nucleatum (T) | 
PF-C139 (LLASHPERLSLGVFFVYRVLHLLLENT; Peptide with targeting and/or antimicrobial activity) | A. naeslundii; also recorded: F. nucleatum; also recorded: P. gingivalis; also recorded: S. mutans; also recorded: T. denticola |  | S. mutans (F) |  | 
PF-C142 (DFPPLSFFRRRFHAYTAPIDNFFGANPF; Peptide with targeting and/or antimicrobial activity) | A. naeslundii; also recorded: F. nucleatum; also recorded: P. gingivalis; also recorded: S. mutans; also recorded: T. denticola |  | S. mutans (I) |  | 
